Source: EP0639202B1, “STABLE POLYPEPTIDE COMPOSITION” (COR THERAPEUTICS, INC., priority 1992, dated 1993)
Where a SMILES comes first, the peptide text is derived from it. Bridges are numbered along the chain shown (N, C = ends). [ ]: non-standard residue; d: D form. hArg = N=C(N)NCCCC[C@H](N)C(=O)O; Mpa = O=C(O)CCS

Legend:
[1] = Storage stability of polypeptide in citrate buffer solution, analysed by reversed phase HPLC; format: physicochemical
Experimental: One ml aliquots of the above solution of polypeptide in citrate buffer were sealed in borosilicate glass ampules under sterile conditions and stored at a constant temperature. Test sample ampules from each pH and temperature condition 4°C, 50°C and 70°C were removed periodically, visually assessed and then analyzed separately by HPLC using a mobile phase comprising acetonitrile (MeCN) and 0.1% trifluoroacetic (TFA) in water. This stability was evaluated by conventional assay methods applicable to purity, weight or size of polypeptides. These included not only visual evaluations, such as discoloration, transparency and precipitation, and included assays normally applied to separate polypeptides from each other and from other materials by reversed phase high performance liquid chromatography (HPLC).
Results of these experiments are set forth in Table 1 in which the stability is expressed in terms of the percentage of main peak of original polypeptide found in the sample analyzed by HPLC. The composition was also found to be normal on visual evaluation. […]

M21 melanoma cells = experiment: Cell adhesion assay: 35S-methionine labelled cells on vitronectin-coated plates; format: cell-based; details: for effect on cell adhesion / attachment to vitronectin (in words): M21 melanoma cells, vitronectin-coated plates
Experimental: M21 melanoma cells were labelled with ^35S-methionine, and then added to vitronectin-coated plates in the presence of the indicated concentrations of purified snake venom peptides. Cell attachment was measured by solubilizing the cells remaining after an incubation and wash, as previously describe.

[2] = target: ADP-induced human platelet aggregation (Homo sapiens, UniProt P05106+P08514); experiment: Standard platelet aggregation inhibition assay; format: cell-based
Description: In addition to the above plate assays, other assays for platelet aggregation inhibition activity and related activities are also available, as set forth above. In summary, a list of commonly employed assays is as follows: • 1. The plate assays utilizing specific receptors described in the previous paragraphs; • 2. Standard assays directly applied to platelet aggregation, such as those described by Gann, Z.-R., et al., J Biol Chem (1988) 263:19827-19832; Huang, T.F., et al., J Biol Chem (1987) 262:16157-16163; Biochemistry (1989) 28:661-666, cited above and incorporated herein by reference; • 3. An in vivo thrombosis model in dogs as described by Folts, J.D., et al., Circulation (1976) 54:365; and • 4. Effect on cell adhesion using S35 methionine-labeled cells as described hereinbelow in Example 10.
IC50 values for the analogs of the invention in this assay are as follows:
A solution was formed in 1.0 M citric acid of greater than 95% pure cyclic form of Mpr-L-homoarginine-Gly-Asp-Trp-Pro-Cys-NH2 • acetate polypeptide (I) at a concentration of up to 200 mg per ml of solution. This solution was diluted to the desired final peptide concentration as follows: This solution was first diluted to about 85% of the final volume with water. The pH of the solution was adjusted to 5.0-5.5 using sodium hydroxide. The solution was then diluted to the final volume with water. Compositions having a concentration of (I) of 0.5 mg/ml and 5.0 mg/ml were formulated and evaluated for stability by HPLC, UV and visual inspection as described in Example 1. The compositions were also evaluated for platelet aggregation inhibiting activity using the assay described above.

GP IIb-IIIa = target: T1, GP IIb-IIIa (Homo sapiens, UniProt P05106+P08514); experiment: Plate assay: inhibition of fibrinogen binding to immobilized GP IIb-IIIa; details: for differential: inhibiting the binding of fibrinogen to GP IIb-IIIa as compared to vitronectin to vitronectin receptor (in words): plate assays
T1 construct: from tissue
Experimental: In the assay, GP IIb-IIIa, prepared in purified form, for example as described by Fitzgerald, L.A., et al., Anal Biochem (1985) 151:169-177, incorporated herein by reference, is coated onto a solid support such as beads, test tubes, or microtiter plates. The coated support is then contacted with fibrinogen and with the test material and incubated for a sufficient time to permit maximal binding of fibrinogen to the immobilized GP IIb-IIIa. Fibrinogen is typically provided at a concentration of about 5-50 nM and the test material can, if desired, be added at a series of dilutions. Typical incubations are 2-4 hr at 35°C, the time and temperature being interdependent.
After incubation, the solution containing the fibrinogen and test material is removed and the level of binding of fibrinogen measured by quantitating bound fibrinogen to GP IIb-IIIa. Any suitable means of detection can be used, but it is convenient to employ labeled fibrinogen, for example using radioactive, fluorescent or biotinylated labels. Such methods are well known and need not be elaborated here.
Assessment of the results is aided by employing a control sample, usually identical to the test sample except that the test substance is absent. In this case, percent inhibition may be calculated using the basis, so that % inhibition =(control - test)/(control)x 100. [formula] Other measures of inhibition effectiveness, such as IC50, can also be used.

vitronectin receptor = vitronectin receptor (Homo sapiens, UniProt P05106+P06756); experiment: Plate assay: inhibition of vitronectin binding to vitronectin receptor; details: at concentrations up to 1 uM
Description: The PAI assay systems further include characterization of the PAI specificity by binding inhibition assays identical to that above but substituting other adhesive proteins for Fg and other receptors for GP IIb-IIIa. In particular, inhibition of the binding of vitronectin to the vitronectin receptor; fibronectin to the fibronectin receptor; fibronectin to GP IIb-IIIa and fibrinogen and/or vWF to GP IIb-IIIa can be assessed. The adhesive protein and receptors for these assays are available in the art.

[3] = Storage stability of polypeptide in citrate buffer solution, analysed by reversed phase HPLC; format: physicochemical; design: key: % of main peak of original polypeptide found by HPLC; details: 25 mM citrate buffer pH 5.25, about 1 mg/mL

Sequence of ADP-induced human platelet aggregation (P08514 32-1039): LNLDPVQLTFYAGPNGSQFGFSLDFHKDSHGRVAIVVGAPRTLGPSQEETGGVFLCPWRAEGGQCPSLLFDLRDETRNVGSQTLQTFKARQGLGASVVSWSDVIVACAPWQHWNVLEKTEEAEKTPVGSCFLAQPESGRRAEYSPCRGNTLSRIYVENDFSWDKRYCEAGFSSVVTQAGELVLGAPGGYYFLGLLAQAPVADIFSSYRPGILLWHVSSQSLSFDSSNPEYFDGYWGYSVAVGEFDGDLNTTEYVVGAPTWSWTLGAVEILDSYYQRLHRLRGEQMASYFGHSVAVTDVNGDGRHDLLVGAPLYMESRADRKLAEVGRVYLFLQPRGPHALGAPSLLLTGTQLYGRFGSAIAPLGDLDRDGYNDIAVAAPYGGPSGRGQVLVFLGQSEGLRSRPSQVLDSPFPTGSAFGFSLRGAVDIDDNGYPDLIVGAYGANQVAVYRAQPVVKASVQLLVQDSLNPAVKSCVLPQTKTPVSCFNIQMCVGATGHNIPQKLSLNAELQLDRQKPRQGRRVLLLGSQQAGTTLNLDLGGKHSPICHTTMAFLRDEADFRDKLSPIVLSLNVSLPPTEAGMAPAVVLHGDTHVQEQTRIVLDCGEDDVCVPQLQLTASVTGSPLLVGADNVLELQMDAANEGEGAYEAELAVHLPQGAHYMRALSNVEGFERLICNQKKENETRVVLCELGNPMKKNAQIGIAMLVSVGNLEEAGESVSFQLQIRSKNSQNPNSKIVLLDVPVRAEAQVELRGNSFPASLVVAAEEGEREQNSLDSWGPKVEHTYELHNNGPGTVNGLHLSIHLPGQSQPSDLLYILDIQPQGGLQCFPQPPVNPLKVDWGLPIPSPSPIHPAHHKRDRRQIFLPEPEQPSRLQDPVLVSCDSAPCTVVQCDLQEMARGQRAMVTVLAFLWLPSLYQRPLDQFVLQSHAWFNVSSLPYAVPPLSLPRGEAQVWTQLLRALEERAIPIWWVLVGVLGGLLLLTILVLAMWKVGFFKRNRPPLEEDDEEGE
Sequence of ADP-induced human platelet aggregation (P05106 27-788): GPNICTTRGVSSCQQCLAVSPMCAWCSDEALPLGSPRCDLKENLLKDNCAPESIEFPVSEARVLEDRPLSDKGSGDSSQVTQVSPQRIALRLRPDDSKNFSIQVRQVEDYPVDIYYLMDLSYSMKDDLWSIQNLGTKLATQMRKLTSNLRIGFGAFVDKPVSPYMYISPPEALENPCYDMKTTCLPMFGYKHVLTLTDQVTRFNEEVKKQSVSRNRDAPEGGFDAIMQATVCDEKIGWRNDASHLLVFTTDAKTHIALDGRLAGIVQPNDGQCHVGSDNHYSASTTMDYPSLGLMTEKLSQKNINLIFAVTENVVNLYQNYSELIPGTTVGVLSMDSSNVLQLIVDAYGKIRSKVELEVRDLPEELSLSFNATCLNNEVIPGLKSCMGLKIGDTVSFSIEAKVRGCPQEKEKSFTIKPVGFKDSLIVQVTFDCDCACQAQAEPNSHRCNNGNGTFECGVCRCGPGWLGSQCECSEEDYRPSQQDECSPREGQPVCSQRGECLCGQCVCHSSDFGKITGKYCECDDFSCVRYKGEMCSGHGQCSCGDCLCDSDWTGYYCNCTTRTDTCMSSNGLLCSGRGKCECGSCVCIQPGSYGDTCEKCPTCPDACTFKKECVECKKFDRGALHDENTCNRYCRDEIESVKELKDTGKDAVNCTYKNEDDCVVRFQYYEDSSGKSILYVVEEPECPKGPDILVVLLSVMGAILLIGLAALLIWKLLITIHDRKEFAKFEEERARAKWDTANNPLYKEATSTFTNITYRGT
T1 sequence (P08514 32-887 limits assumed): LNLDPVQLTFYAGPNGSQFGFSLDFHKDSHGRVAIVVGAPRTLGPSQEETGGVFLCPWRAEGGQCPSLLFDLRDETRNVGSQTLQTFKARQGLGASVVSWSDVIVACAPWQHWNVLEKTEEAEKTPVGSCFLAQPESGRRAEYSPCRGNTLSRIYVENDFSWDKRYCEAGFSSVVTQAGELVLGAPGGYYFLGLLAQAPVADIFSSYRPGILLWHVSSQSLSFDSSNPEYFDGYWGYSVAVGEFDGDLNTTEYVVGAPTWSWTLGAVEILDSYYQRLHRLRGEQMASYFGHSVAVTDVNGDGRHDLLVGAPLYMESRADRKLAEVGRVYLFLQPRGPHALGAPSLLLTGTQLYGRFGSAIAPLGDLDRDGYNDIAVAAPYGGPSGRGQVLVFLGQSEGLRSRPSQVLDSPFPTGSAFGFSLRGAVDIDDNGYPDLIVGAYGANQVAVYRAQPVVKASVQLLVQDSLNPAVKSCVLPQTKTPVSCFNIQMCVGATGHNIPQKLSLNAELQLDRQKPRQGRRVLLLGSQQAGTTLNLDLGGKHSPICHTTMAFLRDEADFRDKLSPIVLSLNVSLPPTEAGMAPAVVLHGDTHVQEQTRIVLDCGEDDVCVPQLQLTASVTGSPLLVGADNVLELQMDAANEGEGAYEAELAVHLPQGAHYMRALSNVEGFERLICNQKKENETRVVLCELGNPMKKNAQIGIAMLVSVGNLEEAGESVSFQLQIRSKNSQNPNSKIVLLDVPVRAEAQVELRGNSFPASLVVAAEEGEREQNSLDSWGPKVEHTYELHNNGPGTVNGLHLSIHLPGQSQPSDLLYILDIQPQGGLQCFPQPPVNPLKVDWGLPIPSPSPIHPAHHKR
T1 sequence (P08514 891-1039 limits assumed): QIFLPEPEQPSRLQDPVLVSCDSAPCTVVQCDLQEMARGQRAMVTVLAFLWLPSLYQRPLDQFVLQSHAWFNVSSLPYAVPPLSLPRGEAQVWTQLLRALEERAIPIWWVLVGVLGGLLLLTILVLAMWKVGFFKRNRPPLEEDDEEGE
T1 sequence (P05106 27-788): as the sequence (P05106 27-788) above
Sequence of vitronectin receptor (P06756 31-889 limits assumed): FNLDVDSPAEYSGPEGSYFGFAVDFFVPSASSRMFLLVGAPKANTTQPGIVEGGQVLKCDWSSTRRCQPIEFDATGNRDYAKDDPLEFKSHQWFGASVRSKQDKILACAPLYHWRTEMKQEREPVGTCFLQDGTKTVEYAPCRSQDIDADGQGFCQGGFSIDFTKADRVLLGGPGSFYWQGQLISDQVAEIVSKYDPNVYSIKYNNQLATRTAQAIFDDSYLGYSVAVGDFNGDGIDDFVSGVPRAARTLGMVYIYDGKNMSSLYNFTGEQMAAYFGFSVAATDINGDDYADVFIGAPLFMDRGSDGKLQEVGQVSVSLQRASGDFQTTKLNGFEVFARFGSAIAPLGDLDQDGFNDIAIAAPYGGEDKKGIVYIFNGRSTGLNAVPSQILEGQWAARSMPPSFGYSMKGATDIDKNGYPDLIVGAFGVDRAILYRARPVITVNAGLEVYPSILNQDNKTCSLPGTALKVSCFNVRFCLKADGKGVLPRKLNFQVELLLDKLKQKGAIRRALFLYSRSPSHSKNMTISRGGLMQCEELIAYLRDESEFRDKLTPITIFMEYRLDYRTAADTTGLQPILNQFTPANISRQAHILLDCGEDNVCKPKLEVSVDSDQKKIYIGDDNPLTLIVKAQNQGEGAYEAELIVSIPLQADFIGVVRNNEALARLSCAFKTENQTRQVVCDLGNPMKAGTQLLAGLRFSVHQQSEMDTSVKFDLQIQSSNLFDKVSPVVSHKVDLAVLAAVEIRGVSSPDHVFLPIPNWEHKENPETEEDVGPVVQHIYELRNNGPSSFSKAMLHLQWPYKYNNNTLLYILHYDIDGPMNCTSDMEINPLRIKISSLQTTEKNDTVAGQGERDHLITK
Sequence of vitronectin receptor (P06756 891-1048 limits assumed): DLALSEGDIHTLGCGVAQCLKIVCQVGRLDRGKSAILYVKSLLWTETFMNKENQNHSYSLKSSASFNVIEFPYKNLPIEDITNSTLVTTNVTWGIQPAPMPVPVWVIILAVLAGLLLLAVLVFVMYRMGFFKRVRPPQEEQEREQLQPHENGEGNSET
Sequence of vitronectin receptor (P05106 27-788): as the sequence (P05106 27-788) above

Mpr-L-homoarginine-Gly-Asp-Trp-Pro-Cys-NH2 • acetate
stability of liquid solution (in words) ([1]; Example 1: 2 mg/ml in citrate buffer pH 5.00 and 5.50, about 4°C): very stable | stability of liquid solution (in words) ([1]; Example 1: 2 mg/ml in citrate buffer pH 5.00 and 5.50, up to about 50°C): still stable | stability of liquid solution (in words) ([1]; Example 1: citrate buffer pH 5.00 and 5.50, 70°C, in comparison to citrate buffer solutions at pH 6.0): much more stable

C[C@H](NC(=O)[C@@H]1CSSC[C@H](NC(=O)CN)C(=O)NCC(=O)N[C@@H](CCCNC(=N)N)C(=O)NCC(=O)N[C@@H](CC(=O)O)C(=O)N[C@@H](Cc2c[nH]c3ccccc23)C(=O)N2CCC[C@H]2C(=O)N1)C(N)=O [reference compound] (H-GCGRGDWPCA-NH2; disulfide 2-9)
effect on cell adhesion / attachment to vitronectin (in words) (M21 melanoma cells): potent inhibitors of cell attachment

C[C@H](NC(=O)[C@@H]1CSSC[C@H](NC(=O)CN)C(=O)N[C@@H](CCCCN)C(=O)NCC(=O)N[C@@H](CC(=O)O)C(=O)N[C@@H](Cc2c[nH]c3ccccc23)C(=O)N1)C(N)=O [Analog #7] (H-GCKGDWCA-NH2; disulfide 2-7)
platelet aggregation inhibition activity (in words) [2]: excellent platelet aggregation inhibition activities | differential: inhibiting the binding of fibrinogen to GP IIb-IIIa as compared to vitronectin to vitronectin receptor (in words) (GP IIb-IIIa): quite specific

[E^28L^41C^64]barbourin (28-73):E-C-A-D-G-L-C-C-D-O-CRFLKKGTVCRVAKGDWNDDTCTG-O-S-C-D-C-P-R-N-G-L-Y-G [Analog #1]
platelet aggregation inhibition activity (in words) [2]: potent inhibitors of platelet aggregation | effect on cell adhesion / attachment to vitronectin (in words) (M21 melanoma cells): Neither barbourin nor Peptide 1 (truncated barbourin) had a significant effect | affinity for GP IIb-IIIa (ability to inhibit the binding of fibrinogen to GP IIb-IIIa) (GP IIb-IIIa): high affinity | affinity for VnR (vitronectin receptor): relative lack of affinity

N=C(N)NCCCC[C@@H]1NC(=O)CCSSC[C@@H](C(N)=O)NC(=O)[C@@H]2CCCN2C(=O)[C@H](Cc2c[nH]c3ccccc23)NC(=O)[C@H](CC(=O)O)NC(=O)CNC1=O [Analog #60, Mpr-(Har)-G-D-W-P-C-NH2] ([Mpa][hArg]GDWPC-NH2; disulfide 1-7 (inferred))
platelet aggregation inhibition activity (in words) [2]: efficient at vanishingly small concentrations | effect on cell adhesion / attachment to vitronectin (in words) (M21 melanoma cells): relatively less effective

C[C@H](NC(=O)[C@@H]1CSSC[C@H](NC(=O)CN)C(=O)N[C@@H](CCCCN)C(=O)NCC(=O)N[C@@H](CC(=O)O)C(=O)N[C@@H](Cc2c[nH]c3ccccc23)C(=O)N2CCC[C@H]2C(=O)N1)C(N)=O [Analog #4] (H-GCKGDWPCA-NH2; disulfide 2-8)
differential: inhibiting the binding of fibrinogen to GP IIb-IIIa as compared to vitronectin to vitronectin receptor (in words) (GP IIb-IIIa): highest differential

NCCCC[C@@H]1NC(=O)CCSSC[C@@H](C(N)=O)NC(=O)[C@@H]2CCCN2C(=O)[C@H](Cc2c[nH]c3ccccc23)NC(=O)[C@H](CC(=O)O)NC(=O)CNC1=O [Analog #19, Mpr-K-G-D-W-P-C-NH2] ([Mpa]KGDWPC-NH2; disulfide 1-7 (inferred))
platelet aggregation inhibition activity (in words) [2]: good platelet aggregation inhibition activity

NCCCC[C@@H]1NC(=O)CNC(=O)[C@@H](N)CSSC[C@@H](C(N)=O)NC(=O)[C@@H]2CCCN2C(=O)[C@H](Cc2c[nH]c3ccccc23)NC(=O)[C@H](CC(=O)O)NC(=O)CNC1=O [Analog #5] (H-CGKGDWPC-NH2; disulfide 1-8)
platelet aggregation inhibition activity (in words) [2]: excellent platelet aggregation inhibition activities | differential: inhibiting the binding of fibrinogen to GP IIb-IIIa as compared to vitronectin to vitronectin receptor (in words) (GP IIb-IIIa): quite specific

C[C@H](NC(=O)[C@@H]1CSSC[C@H](NC(=O)CN)C(=O)NCC(=O)N[C@@H](CCCCN)C(=O)NCC(=O)N[C@@H](CC(=O)O)C(=O)N[C@@H](Cc2c[nH]c3ccccc23)C(=O)N2CCC[C@H]2C(=O)N1)C(N)=O [Analog #3, G-C-G-K-G-D-W-P-C-A-NH2]
effect on M21 cell attachment to vitronectin (in words) (M21 melanoma cells; up to 60 uM): ineffective

Mpr-Ala-(Har)-G-D-W-P-C-NH2
stability by HPLC ([3]; 5°C, 0 days): 99.6 | stability by HPLC ([3]; 5°C, 29 days): 98.1 | stability by HPLC ([3]; 5°C, 60 days): 98.3 | stability by HPLC ([3]; 5°C, 90 days): 97.3 | stability by HPLC ([3]; 30°C, 29 days): 97.3 | stability by HPLC ([3]; 30°C, 60 days): 97.3 | stability by HPLC ([3]; 30°C, 90 days): 96.5 | stability by HPLC ([3]; 45°C, 29 days): 95.4 | stability by HPLC ([3]; 45°C, 60 days): 92.6 | stability by HPLC ([3]; 45°C, 90 days): 90.6
